Legend:
[1] = molecular target: baculovirus-expressed ALK (Homo sapiens, UniProt Q9UM73); experiment: ALK kinase inhibition, TRF/ELISA; assay type: biochemical; settings: read-out: ALK Potency
How it was run: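 Plates were coated with GST-PLC-γ substrate (10 μg/mL) and the reaction was started with 30 ng/mL ALK, running 15 min at 37° C. Phosphotyrosine was detected by time-resolved fluorescence with Eu-labeled PT66 antibody. IC50s came from variable-slope sigmoidal fits of percent inhibition versus log concentration.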

[2] = molecular target: baculovirus-expressed JAK2 kinase (Homo sapiens, UniProt O60674); experiment: biochemical; settings: 0.2 μM ATP; read-out: JAK2 Potency
How it was run: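 Time-resolved fluorescence kinase assay using 15 ng/mL baculovirus-expressed JAK2 on Neutravidin-captured biotinylated 15-mer peptide substrate, reaction 20 min at room temperature. IC50 from percent inhibition versus log concentration, sigmoidal variable-slope fit.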

Chain of baculovirus-expressed ALK (Q9UM73 19-1620): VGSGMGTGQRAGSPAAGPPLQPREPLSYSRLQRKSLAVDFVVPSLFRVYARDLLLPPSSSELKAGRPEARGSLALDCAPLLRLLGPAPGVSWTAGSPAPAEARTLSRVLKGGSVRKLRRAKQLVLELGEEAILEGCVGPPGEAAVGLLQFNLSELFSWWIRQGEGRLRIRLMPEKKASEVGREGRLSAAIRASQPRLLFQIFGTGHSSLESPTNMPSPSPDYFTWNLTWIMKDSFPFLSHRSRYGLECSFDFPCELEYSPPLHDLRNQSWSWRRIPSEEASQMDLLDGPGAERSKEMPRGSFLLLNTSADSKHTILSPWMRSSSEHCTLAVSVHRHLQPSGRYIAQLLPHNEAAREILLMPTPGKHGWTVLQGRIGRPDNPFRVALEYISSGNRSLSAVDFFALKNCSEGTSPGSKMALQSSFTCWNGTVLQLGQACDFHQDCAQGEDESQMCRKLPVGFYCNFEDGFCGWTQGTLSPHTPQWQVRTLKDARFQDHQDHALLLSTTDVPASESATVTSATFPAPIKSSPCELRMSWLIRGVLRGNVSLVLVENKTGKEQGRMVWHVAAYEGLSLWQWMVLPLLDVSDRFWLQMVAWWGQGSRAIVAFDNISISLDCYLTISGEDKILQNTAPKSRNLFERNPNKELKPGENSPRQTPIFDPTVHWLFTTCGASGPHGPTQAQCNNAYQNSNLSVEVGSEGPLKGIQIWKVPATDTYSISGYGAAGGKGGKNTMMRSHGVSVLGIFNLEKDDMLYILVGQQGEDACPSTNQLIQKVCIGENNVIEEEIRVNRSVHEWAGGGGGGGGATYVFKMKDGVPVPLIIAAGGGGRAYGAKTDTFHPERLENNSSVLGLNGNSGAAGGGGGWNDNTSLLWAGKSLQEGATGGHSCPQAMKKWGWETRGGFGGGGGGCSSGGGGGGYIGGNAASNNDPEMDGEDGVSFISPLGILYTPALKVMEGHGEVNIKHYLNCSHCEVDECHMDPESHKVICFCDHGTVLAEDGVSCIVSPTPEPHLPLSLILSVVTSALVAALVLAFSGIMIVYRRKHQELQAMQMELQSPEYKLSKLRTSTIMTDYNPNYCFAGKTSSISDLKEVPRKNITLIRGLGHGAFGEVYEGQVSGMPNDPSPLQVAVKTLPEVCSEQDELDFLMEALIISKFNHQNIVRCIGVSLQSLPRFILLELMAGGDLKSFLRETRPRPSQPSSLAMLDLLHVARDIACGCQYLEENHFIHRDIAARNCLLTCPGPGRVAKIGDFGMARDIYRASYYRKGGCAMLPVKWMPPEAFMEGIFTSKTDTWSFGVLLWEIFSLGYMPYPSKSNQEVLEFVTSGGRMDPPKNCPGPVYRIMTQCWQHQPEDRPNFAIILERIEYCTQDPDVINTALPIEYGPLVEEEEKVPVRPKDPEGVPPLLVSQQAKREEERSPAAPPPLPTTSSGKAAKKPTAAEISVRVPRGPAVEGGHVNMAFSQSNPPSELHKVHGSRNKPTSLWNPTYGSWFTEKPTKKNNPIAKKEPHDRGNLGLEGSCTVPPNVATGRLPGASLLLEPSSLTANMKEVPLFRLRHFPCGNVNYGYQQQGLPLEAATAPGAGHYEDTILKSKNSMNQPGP
Chain of baculovirus-expressed JAK2 kinase (O60674 whole entry): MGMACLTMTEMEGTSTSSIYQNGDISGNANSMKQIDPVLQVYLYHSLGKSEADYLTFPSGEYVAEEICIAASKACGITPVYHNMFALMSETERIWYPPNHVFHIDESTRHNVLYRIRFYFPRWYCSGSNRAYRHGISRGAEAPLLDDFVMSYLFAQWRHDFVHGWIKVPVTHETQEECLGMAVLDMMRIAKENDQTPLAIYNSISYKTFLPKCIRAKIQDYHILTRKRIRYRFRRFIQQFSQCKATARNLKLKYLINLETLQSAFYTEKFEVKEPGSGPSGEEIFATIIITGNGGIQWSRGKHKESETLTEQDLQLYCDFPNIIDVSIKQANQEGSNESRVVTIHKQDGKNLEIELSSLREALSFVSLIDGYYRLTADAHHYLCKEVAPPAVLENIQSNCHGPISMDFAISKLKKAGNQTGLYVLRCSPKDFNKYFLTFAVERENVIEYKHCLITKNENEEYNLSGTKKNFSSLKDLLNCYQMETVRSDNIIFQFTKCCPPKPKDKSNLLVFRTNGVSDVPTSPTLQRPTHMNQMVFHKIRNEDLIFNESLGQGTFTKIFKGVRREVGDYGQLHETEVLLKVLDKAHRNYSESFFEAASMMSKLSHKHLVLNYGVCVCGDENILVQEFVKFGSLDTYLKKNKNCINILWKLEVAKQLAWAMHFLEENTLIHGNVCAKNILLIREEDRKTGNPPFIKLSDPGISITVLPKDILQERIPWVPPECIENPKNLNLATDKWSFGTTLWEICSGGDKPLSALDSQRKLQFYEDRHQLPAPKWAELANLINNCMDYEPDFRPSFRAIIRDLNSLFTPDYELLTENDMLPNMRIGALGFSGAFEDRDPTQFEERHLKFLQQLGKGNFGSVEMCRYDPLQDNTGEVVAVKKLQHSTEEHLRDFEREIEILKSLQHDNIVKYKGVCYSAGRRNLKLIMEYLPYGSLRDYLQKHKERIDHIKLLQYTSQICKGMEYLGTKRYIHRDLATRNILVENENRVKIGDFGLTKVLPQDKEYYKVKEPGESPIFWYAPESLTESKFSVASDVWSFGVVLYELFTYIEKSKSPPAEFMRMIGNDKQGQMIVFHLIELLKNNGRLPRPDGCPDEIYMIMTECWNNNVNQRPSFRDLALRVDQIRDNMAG

Compound | IC50 [1] [µM] | IC50 [2] [µM]
CN(C)CCNC(=O)c1ccc(-c2nc3c(N[C@H]4[C@@H](C(N)=O)[C@@H]5C=C[C@H]4C5)c(Cl)cnc3[nH]2)cc1 [Compound CCXXXII, (1S,2S,3R,4R)-3-{6-Chloro-2-[4-(2-dimethylamino-ethylcarbamoyl)-phenyl]-3H-imidazo[4,5-b]pyridine-7-ylamino}-bicyclo[2.2.1]hept-5-ene-2-carboxylic acid amide] | < 0.1 | < 0.1
CN1CCN(C(=O)c2ccc(-c3nc4c(N[C@H]5[C@@H](C(N)=O)[C@@H]6C=C[C@H]5C6)c(Cl)cnc4[nH]3)cc2)CC1 [Compound CCXXII, (1S,2S,3R,4R)-3-(6-chloro-2-(4-(4-methylpiperazine-1-carbonyl)phenyl)-3H-imidazo[4,5-b]pyridin-7-ylamino)bicyclo[2.2.1]hept-5-ene-2-carboxamide] | < 0.1 | < 0.1
CC(C)(C)OC(=O)N1CCC(n2cc(-c3nc4c(N[C@H]5[C@@H](C(N)=O)[C@@H]6C=C[C@H]5C6)c(Cl)cnc4[nH]3)cn2)CC1 [Compound L, 4-{4-[7-((1R,2R,3S,4S)-3-Carbamoyl-bicyclo[2.2.1]hept-5-en-2-ylamino)-6-chloro-3H-imidazo[4,5-b]pyridine-2-yl]-pyrazol-1-yl}-piperidine-1-carboxylic acid tert-butyl ester] | 0.1 to 1 | < 0.1
NC(=O)[C@@H]1[C@H](Nc2c(Cl)cnc3[nH]c(-c4cccc(OCC(=O)O)c4)nc23)[C@H]2C=C[C@@H]1C2 [Compound CCLXIII, 2-(3-(7-((1R,2R,3S,4S)-3-carbamoylbicyclo[2.2.1]hept-5-en-2-ylamino)-6-chloro-3H-imidazo[4,5-b]pyridin-2-yl)phenoxy)acetic acid] | 0.1 to 1 | < 0.1

Next, values leading:

IC50 [1] [µM] | IC50 [2] [µM] | Compound
< 0.1 | < 0.1 | COC[C@H](O)CN1CCC(n2cc(-c3nc4c(N[C@H]5[C@@H](C(N)=O)[C@@H]6C=C[C@H]5C6)c(Cl)cnc4[nH]3)cn2)CC1 [Compound LX, (1S,2S,3R,4R)-3-(6-Chloro-2-{1-[1-((R)-2-hydroxy-3-methoxy-propyl)-piperidin-4-yl]-1H-pyrazol-4-yl}-3H-imidazo[4,5-b]pyridine-7-ylamino)-bicyclo[2.2.1]hept-5-ene-2-carboxylic acid amide]
< 0.1 | < 0.1 | CN(C)c1nc(Cl)c(-c2nc3c(N[C@H]4[C@@H](C(N)=O)[C@@H]5C=C[C@H]4C5)c(Cl)cnc3[nH]2)s1 [Compound CLIV, (1S,2S,3R,4R)-3-[6-Chloro-2-(4-chloro-2-dimethylamino-thiazol-5-yl)-3H-imidazo[4,5-b]pyridin-7-ylamino]-bicyclo[2.2.1]hept-5-ene-2-carboxylic acid amide]
< 0.1 | 1 to 10 | COc1cc(CN2CCN(C)CC2)ccc1-c1nc2c(N[C@@H]3CCCC[C@H]3NS(C)(=O)=O)c(Cl)cnc2[nH]1 [Compound LXXI, N-((1R,2R)-2-{6-Chloro-2-[2-methoxy-4-(4-methyl-piperazin-1-ylmethyl)-phenyl]-3H-imidazo[4,5-b]pyridine-7-ylamino}-cyclohexyl)-methanesulfonamide]
0.1 to 1 | < 0.1 | NC(=O)COc1cccc(-c2nc3c(N[C@H]4[C@@H](C(N)=O)[C@@H]5C=C[C@H]4C5)c(Cl)cnc3[nH]2)c1 [Compound CCXXXVIII, (1S,2S,3R,4R)-3-(2-(3-(2-amino-2-oxoethoxy)phenyl)-6-chloro-3H-imidazo[4,5-b]pyridin-7-ylamino)bicyclo[2.2.1]hept-5-ene-2-carboxamide]
0.1 to 1 | < 0.1 | NC(=O)[C@@H]1[C@H](Nc2c(Cl)cnc3[nH]c(-c4ccc(N5CCOCC5)c(Cl)c4)nc23)[C@H]2C=C[C@@H]1C2 [Compound CXXXVII, (1S,2S,3R,4R)-3-[6-Chloro-2-(3-chloro-4-morpholin-4-yl-phenyl)-3H-imidazo[4,5-b]pyridin-7-ylamino]-bicyclo[2.2.1]hept-5-ene-2-carboxylic acid amide]
